Assays:
Test in all cases: AUC of viability dose-response curve (% viability x log10 dose units); higher = less sensitive
Conditions in all cases: 48 h
NOMO1 = test system: NOMO1
Procedure, shortened: (§1)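 In 1536-well plates, leukemia cells adapted to each medium (500 or 1000 cells/well) were exposed for 48 h at 37°C to library compounds in DMSO across 11 threefold doses, 47 μM down to 0.79 nM. Viability was read by CellTiter-Glo One luminescence and normalised per plate to DMSO and cell-free wells. A four-parameter log-logistic fit over log10 doses was integrated by trapezoidal rule. This yielded the area under the curve, with over-full-viability curves scaled and quality-control failures dropped.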

P12-Ichikawa = test system: P12-Ichikawa
Procedure, shortened: as §1

SEM cells = test system: SEM cells
Procedure, shortened: as §1

[1] = RPMI 5 mM glucose + 10% dialyzed FBS

SMILES | AUC of viability dose-response curve (NOMO1; HPLM + 10% dialyzed FBS) | AUC of viability dose-response curve (NOMO1; RPMI 5 mM glucose + 10% FBS) | AUC of viability dose-response curve (NOMO1; [1]) | AUC of viability dose-response curve (P12-Ichikawa; HPLM + 10% dialyzed FBS) | AUC of viability dose-response curve (P12-Ichikawa; RPMI 5 mM glucose + 10% FBS) | AUC of viability dose-response curve (P12-Ichikawa; [1]) | AUC of viability dose-response curve (SEM cells; HPLM + 10% dialyzed FBS) | AUC of viability dose-response curve (SEM cells; RPMI 5 mM glucose + 10% FBS) | AUC of viability dose-response curve (SEM cells; [1])
OCCN(CCO)c1nc(N2CCCCC2)c2nc(N(CCO)CCO)nc(N3CCCCC3)c2n1 | 459 | 438 | 465 | 459 | 467 | 463 | 454 | 457 | 461
CN(C(Cc1ccc(O[S+](=O)([O-])c2cccc3cnccc23)cc1)C(=O)N1CCN(c2ccccc2)CC1)[S+](=O)([O-])c1cccc2cnccc12 (configuration not stated) | 442 | 425 | 436 | 452 | 434 | 450 | 436 | 424 | 428
CN1CCN(CCCN2c3ccccc3Sc3ccc(Cl)cc32)CC1.O=C(O)/C=C\C(=O)O.O=C(O)/C=C\C(=O)O | 362 | 390 | 386 | 429 | 421 | 423 | 471 | 466 | 465
COC(=O)Nc1nc2ccc([S+]([O-])c3ccccc3)cc2[nH]1 (configuration not stated) | 460 | 468 | 466 | 441 | 454 | 461 | 417 | 438 | 441
CN(C)CCc1c[nH]c2ccc(C[S+](=O)([O-])N3CCCC3)cc12 | 459 | 468 | 460 | 471 | 466 | 466 | 453 | 427 | 433
C=CC(=O)Nc1ccc2ncnc(Nc3ccc(OCc4cccc(F)c4)c(Cl)c3)c2c1 | 355 | 368 | 355 | 404 | 404 | 404 | 370 | 400 | 383
Cc1cccc(-c2[nH]c(C(C)(C)C)nc2-c2ccc3c(c2)OCO3)n1 | 418 | 399 | 398 | 413 | 406 | 423 | 411 | 409 | 411
OC[C@H]1OC(OC2=CC3=C(C(=C2)O)C(=O)\C(=C/O3)C4=CC=C(O)C=C4)[C@H](O)[C@@H](O)[C@@H]1O (some centres not stated) | 391 | 407 | 372 | 405 | 401 | 391 | 408 | 454 | 451

Reference: the supplement of paper PMC11451515
